Assay [1] has as its system SKCO1 and GEO cells. In words: Cell proliferation assay with or without gefitinib. The following applies: PRMT1-overexpressing and vector control cells. It is filed as cell-based. An excerpt:
(§1) FIGS. 1A-F. PRMT1-mediated cell proliferation and colony formation are EGFR signaling dependent. FIG. 1A. Cell proliferation assay of SKCO1 (left) and GEO (right) cells exogenously expressing PRMT1, PRMT1 shRNA, and control vector. In the top graphs, the top lines represent PRMT1 and the bottom lines represent Vector. In the bottom graphs, the top lines represent Vector and the bottom lines represent PRMT1 shRNA. P<0.05, t-test. FIG. 1B. Soft agar assay of SKCO1 cells exogenously expressing PRMT1, PRMT1 shRNA and control vector. Representative images from the anchorage-independent growth assay are shown above. *P<0.05, **P<0.005, t-test. FIG. 1C. Cell proliferation assay of SKCO1 (top) and GEO (bottom) cells expressing PRMT1 or vector control with or without gefitinib treatment. In both graphs, the top solid lines represent PRMT1 and the bottom solid lines represent Vector. In the top graph, the top dashed line represents PRMT1+gefitinib and the bottom dashed line represents Vector+gefitinib. P<0.05, t-test. FIG. 1D. Soft agar assay of SKCO1 exogenously expressing PRMT1 and control vector with or without gefitinib treatment. **P<0.005, t-test. FIG. 1E. […] All quantitative data were generated from a minimum of three replicates. Data are expressed as mean±s.d.
Cells were then trypsinized and cell numbers counted on a daily basis.

The subject of assay [2] is SKCO1 cells. In words: Anchorage-independent growth (soft agar) assay for colony formation with or without gefitinib. The following applies: PRMT1-overexpressing and vector control cells. It is filed as cell-based.
From the text: as §1, with “1D.” for “1D. Soft agar assay of SKCO1 exogenously expressing PRMT1 and control vector with or without gefitinib treatment. **P<0.005, t-test. FIG. 1E.”
The base layer of cell growth matrix containing DMEM/F12 medium, 10% FBS, and 0.5% agar was paved in 6-well plates (1.5 ml per well). […] Colonies with a diameter larger than 0.5 mm were counted.

As for `COc1cc2ncnc(Nc3ccc(F)c(Cl)c3)c2cc1OCCCN1CCOCC1` [gefitinib], in assay [1], the cell proliferation entry is given as “significantly inhibited”. Also, the colony formation result in assay [2] is “significantly inhibited”.

Source of the values: patent US11452775B2, “Detection of arginine methylation of EGFR for prediction of resistance to therapy” (Board of Regents, The University of Texas System, priority 2013, dated 2022).
